Test results published in publication PMC8879200, “Design, Synthesis, and Biological Evaluation of 4,4’-Difluorobenzhydrol Carbamates as Selective M1 Antagonists” (Pharmaceuticals, 2022).
Read-outs that look alike come from different tables or passages of the source.

Columns and labels:
[1] = target: T1, hM4 (Homo sapiens, UniProt P08173); assay: Competitive [3H]NMS radioligand binding, CHO-hM4 cell membranes; details: for Ki: inhibition of [3H]NMS binding, CHO-hM4 membranes, read-out: Affinity: Ki ± SD, hM4
T1 construct: host or cells: CHO-K1, stably transfected
T1 sequence (P08173 1-479): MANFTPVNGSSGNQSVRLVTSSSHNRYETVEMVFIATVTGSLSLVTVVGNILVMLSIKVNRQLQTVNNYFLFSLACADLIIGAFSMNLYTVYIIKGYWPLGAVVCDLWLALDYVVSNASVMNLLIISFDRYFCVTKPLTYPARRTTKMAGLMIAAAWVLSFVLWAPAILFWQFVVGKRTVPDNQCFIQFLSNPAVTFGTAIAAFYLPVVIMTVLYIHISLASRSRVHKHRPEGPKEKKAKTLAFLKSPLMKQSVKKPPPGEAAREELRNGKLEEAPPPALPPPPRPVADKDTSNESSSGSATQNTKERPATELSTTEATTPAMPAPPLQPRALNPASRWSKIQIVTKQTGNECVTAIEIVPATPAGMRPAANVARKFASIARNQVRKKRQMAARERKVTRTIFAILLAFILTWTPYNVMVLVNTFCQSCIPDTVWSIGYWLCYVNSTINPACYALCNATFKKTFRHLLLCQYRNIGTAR
Experimental: (§1) We first assessed the carbamates’ affinities for human muscarinic acetylcholine receptors subtypes hM1–5 by means of a competitive radioligand binding assay displacing [N-methyl-^3H]scopolamine methyl chloride ([^3H]NMS) in cell membranes expressing the individual receptors.
(§2) Cell membranes bearing hM1-hM5 receptors were prepared as described previously. Briefly, stably transfected CHO-K1 cells were grown to at least 80% confluency in T175 flasks, washed with ice-cold DPBS, and scraped into a mixture of ice-cold of 2 mL 10 mM Tris-HCl, 1 mM EDTA-buffer, pH 7.4 and 200 µL protease inhibitor. A cell homogenate was prepared by passing the cell suspension through a G29 needle. The cell homogenates corresponding to two T175 flasks were combined and subsequently centrifuged (10 min, 1000 × g, 4 °C). Ultracentrifugation of the supernatant (1 h, 100,000 × g, 4 °C) yielded a membrane pellet, which was suspended in 250 µL 50 mM Tris-HCl buffer, pH 7.4 and stored at −80 °C.
(§3) Maximum binding was measured by using 5 µL DMSO, and nonspecific binding was measured by using 5 µL of 1 µM scopolamine in DMSO. […] The membrane-bound radioactivity was recovered by filtration through Whatman™ GF/B glass fibre filters pre-soaked in aqueous 0.1% PEI using an M-36 tygon tubed cell harvester (Brandel®, Gaithersburg, MD, USA). Membranes were washed 3 times with ice-cold washing buffer (50 mM Tris, pH 7.4) before being dried, transferred to 2 mL scintillation cocktail (UltimaGold™, high flashpoint LSC cocktail, PerkinElmer, Waltham, MA, USA) and counted in a β -counter (Hidex TDCR Liquid Scintillation Counter in CPM mode). IC50 values were calculated by a variable slope logistic regression using at least five distinct concentrations of test compounds, pipetted in triplicates.

[2] = High throughput HPLC-logD (lipophilicity); details: pH 7.4
Experimental: (§4) Briefly, a mixture of toluene (≥98%, Sigma-Aldrich, St. Louis, MO, USA) and triphenylene (≥99.9%, Carl Roth, Karlsruhe, Germany) was used as internal standard. Each sample was dissolved in the internal standard mixture. Using gradient elution, the injection volume was set to 7 µL, the flow rate was 1.5 mL/min, and the mobile phase consisted of a mixture of methanol and 0.01 M sodium phosphate buffer pH 7.4. The HPLC-logD values were derived from the measured retention times following the previously published equation [27, 30].

[3] = target: T2, hM2 (Homo sapiens, UniProt P08172); assay: Competitive [3H]NMS radioligand binding, CHO-hM2 cell membranes; details: for Ki: read-out: Affinity: Ki ± SD, hM2
T2 construct: host or cells: CHO-K1, stably transfected
T2 sequence (P08172 1-466): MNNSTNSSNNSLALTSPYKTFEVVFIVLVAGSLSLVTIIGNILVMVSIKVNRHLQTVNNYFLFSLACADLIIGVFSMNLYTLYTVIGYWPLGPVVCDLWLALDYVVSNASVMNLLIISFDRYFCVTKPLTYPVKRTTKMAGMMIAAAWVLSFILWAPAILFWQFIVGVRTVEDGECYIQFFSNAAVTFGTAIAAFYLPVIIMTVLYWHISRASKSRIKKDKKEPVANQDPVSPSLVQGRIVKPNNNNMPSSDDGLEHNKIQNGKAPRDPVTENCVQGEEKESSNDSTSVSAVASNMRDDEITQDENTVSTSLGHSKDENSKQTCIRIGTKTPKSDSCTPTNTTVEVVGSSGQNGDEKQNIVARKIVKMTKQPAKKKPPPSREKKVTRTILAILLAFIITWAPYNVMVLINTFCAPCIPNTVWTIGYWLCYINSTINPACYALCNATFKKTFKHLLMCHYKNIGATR
Experimental: as §1, §2, §3

[4] = target: T3, hM5 (Homo sapiens, UniProt P08912); assay: Competitive [3H]NMS radioligand binding, CHO-hM5 cell membranes; details: for Ki: inhibition of [3H]NMS binding, CHO-hM5 membranes, read-out: Affinity: Ki ± SD, hM5
T3 construct: host or cells: CHO-K1, stably transfected
T3 sequence (P08912 1-532): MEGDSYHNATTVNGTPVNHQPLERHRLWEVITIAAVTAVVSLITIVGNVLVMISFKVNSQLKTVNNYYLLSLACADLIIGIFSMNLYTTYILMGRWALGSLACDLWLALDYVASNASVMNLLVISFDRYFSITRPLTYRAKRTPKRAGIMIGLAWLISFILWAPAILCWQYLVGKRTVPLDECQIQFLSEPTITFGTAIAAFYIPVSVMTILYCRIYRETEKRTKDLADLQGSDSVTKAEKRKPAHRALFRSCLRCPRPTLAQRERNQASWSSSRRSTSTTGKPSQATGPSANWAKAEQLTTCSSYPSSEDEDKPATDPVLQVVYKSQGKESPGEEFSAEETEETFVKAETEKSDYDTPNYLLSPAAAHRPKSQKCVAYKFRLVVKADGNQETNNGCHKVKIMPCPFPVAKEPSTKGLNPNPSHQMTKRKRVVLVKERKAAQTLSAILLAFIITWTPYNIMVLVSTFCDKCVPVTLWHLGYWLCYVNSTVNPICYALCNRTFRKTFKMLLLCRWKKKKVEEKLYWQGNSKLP
Experimental: as §1, §2, §3

[5] = target: T4, hM3 (Homo sapiens, UniProt P20309); assay: Competitive [3H]NMS radioligand binding, CHO-hM3 cell membranes; details: for Ki: read-out: Affinity: Ki ± SD, hM3
T4 construct: host or cells: CHO-K1, stably transfected
Experimental: as §1, §2, §3

[6] = target: T5, hM1 (Homo sapiens, UniProt P11229); assay: Competitive [3H]NMS radioligand binding, CHO-hM1 cell membranes; details: inhibition of [3H]NMS binding, CHO-hM1 membranes; read-out: Affinity: Ki ± SD, hM1
T5 construct: host or cells: CHO-K1, stably transfected
T5 sequence (P11229 1-460): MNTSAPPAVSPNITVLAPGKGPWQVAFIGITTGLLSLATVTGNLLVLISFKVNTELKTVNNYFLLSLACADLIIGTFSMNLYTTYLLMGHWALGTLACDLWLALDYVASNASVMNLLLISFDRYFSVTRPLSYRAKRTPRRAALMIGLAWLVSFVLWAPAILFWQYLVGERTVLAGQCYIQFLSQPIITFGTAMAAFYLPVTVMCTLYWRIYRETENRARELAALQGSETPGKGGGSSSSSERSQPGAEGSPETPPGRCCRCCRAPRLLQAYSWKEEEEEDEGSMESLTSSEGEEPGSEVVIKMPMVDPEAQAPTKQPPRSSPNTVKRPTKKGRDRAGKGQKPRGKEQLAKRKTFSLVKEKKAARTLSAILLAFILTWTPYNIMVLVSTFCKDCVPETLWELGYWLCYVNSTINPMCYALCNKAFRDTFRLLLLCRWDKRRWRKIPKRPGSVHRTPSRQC
Experimental: as §1, §2, §3

[7] = physchem; details: pH 7.4
Experimental: as §4

T4 sequence (P20309 whole entry): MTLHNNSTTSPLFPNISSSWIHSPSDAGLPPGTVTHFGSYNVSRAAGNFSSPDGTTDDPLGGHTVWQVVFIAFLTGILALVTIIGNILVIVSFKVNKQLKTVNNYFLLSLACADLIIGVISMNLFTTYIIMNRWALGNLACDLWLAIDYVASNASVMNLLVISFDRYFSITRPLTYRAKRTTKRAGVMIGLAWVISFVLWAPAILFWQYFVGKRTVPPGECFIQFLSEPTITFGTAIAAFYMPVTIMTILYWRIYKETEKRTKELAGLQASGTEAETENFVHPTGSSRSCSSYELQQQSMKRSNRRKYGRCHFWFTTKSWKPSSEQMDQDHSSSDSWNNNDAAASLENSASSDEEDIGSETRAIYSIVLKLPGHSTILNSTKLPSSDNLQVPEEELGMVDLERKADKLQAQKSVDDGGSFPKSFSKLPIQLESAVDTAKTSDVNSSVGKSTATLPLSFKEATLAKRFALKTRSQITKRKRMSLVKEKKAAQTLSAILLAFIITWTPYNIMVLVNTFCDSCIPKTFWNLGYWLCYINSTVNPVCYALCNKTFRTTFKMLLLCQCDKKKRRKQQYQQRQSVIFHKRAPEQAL

| Structure (SMILES) | Ki [1] | x-Fold selectivity for hM1 vs. hM4 ([1]; ratio of Ki values hM4/hM1) | chromatographic logD [2] | x-Fold selectivity for hM1 vs. hM2 ([3]; ratio of Ki values hM2/hM1) | Ki [3] | Ki [4] | x-Fold selectivity for hM1 vs. hM5 ([4]; ratio of Ki values hM5/hM1) | x-Fold selectivity for hM1 vs. hM3 ([5]; ratio of Ki values hM3/hM1) | Ki [5] | Ki [6] | melting point | Ki ([3]; inhibition of [3H]NMS binding, CHO-hM2 membranes, >1000 values from two independent experiments) | Ki ([5]; inhibition of [3H]NMS binding, CHO-hM3 membranes, >1000 values from two independent experiments) | chromatographic logD [7] |
| --- | --- | --- | --- | --- | --- | --- | --- | --- | --- | --- | --- | --- | --- | --- |
| CN1CCC(NC(=O)OC(c2ccc(F)cc2)c2ccc(F)cc2)C1 (centres unmarked) [Compound 9, Bis(4-fluorophenyl)methyl (1-methylpyrrolidin-3-yl)carbamate] | 144 ± 37.3 nM | 2.1 fold | 2.8 ± 0.1 | 10.6 fold | 722 ± 101 nM | 64.5 ± 22.8 nM | 1.0 fold | 2.7 fold | 181 ± 68.1 nM | 67.8 ± 5.4 nM | 84 to 86 °C | – | – | – |
| CN1C2CCCC1CC(NC(=O)OC(c1ccc(F)cc1)c1ccc(F)cc1)C2 [Compound 8, Bis(4-fluorophenyl)methyl ((1R,3s,5S)-9-methyl-9-azabicyclo[3.3.1]nonan-3-yl)carbamate] | 563 ± 73.4 nM | – | – | – | – | 521 ± 173 nM | – | – | – | 475 ± 88.5 nM | – | 624 ± 104 nM | > 1000 nM | 3.21 ± 0.03 |
